In PubChem BioAssay AID292 (DTP/NCI, 2004) one finds T/C data, which are given here for 17 compounds.

Structures are written as SMILES. Several values for one entry are separate records, joined by “and”; a condition that tells them apart may be missing. Identical values can stand only once. Inconclusive results and toxic doses are left out.

For this assay, the system named is B6C3F1 mice, ip Sarcoma M5076, median survival T/C. Nature of the assay: NCI In Vivo Anticancer Drug Screen. Data for tumor model Sarcoma M5076 (intraperitoneal) in B6C3F1 mice. The following applies: endpoint: median survival time, higher = longer survival. A digest of the protocol: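 Survival measured in treated (T) and vehicle control (C) mice with transplantable tumour; result given as T divided by C.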

[1] abbreviates: dose: 125.0 mg/kg/injection, schedule: Q04DX004 (ip), vehicle: saline with Tween-80.
The mark [2] stands for this setting: dose: 250.0 mg/kg/injection, schedule: Q04DX004 (ip), vehicle: saline with Tween-80.
Where [3] appears, read: dose: 50.0 mg/kg/injection, schedule: Q04DX004 (ip), vehicle: saline.
[4] abbreviates: dose: 100.0 mg/kg/injection, schedule: Q04DX004 (ip), vehicle: saline.
[5] abbreviates: dose: 50.0 mg/kg/injection, schedule: Q04DX004 (ip), vehicle: Klucel (hydroxypropylcellulose) (HPC).
[6] abbreviates: dose: 100.0 mg/kg/injection, schedule: Q04DX004 (ip), vehicle: Klucel (hydroxypropylcellulose) (HPC).
The mark [7] stands for this setting: dose: 200.0 mg/kg/injection, schedule: Q04DX004 (ip), vehicle: Klucel (hydroxypropylcellulose) (HPC).
[8] abbreviates: dose: 400.0 mg/kg/injection, schedule: Q04DX004 (ip), vehicle: Klucel (hydroxypropylcellulose) (HPC).
The mark [9] stands for this setting: dose: 50.0 mg/kg/injection, schedule: Q04DX004 (ip), vehicle: suspension in saline.
The mark [10] stands for this setting: dose: 100.0 mg/kg/injection, schedule: Q04DX004 (ip), vehicle: suspension in saline.
Where [11] appears, read: dose: 37.5 mg/kg/injection, schedule: Q04DX004 (ip), vehicle: saline with Tween-80.
The mark [12] stands for this setting: dose: 75.0 mg/kg/injection, schedule: Q04DX004 (ip), vehicle: saline with Tween-80.

As for `O=S1(=O)C(c2ccccc2)=C(O)c2cc3ccccc3nc21`, the T/C was 97 % of control (dose: 31.25 mg/kg/injection, schedule: Q04DX004 (ip), vehicle: saline with Tween-80); 108 % of control (dose: 62.5 mg/kg/injection, schedule: Q04DX004 (ip), vehicle: saline with Tween-80); 93 % of control under setting [1]; 102 % of control under setting [2].

For the compound `CC(NNC(=S)N(C)C1CCCCC1)c1cc2ccccc2cn1` (centres undefined), the T/C was 102 % of control under setting [3]; 105 % of control under setting [4]; 111 % of control (dose: 200.0 mg/kg/injection, schedule: Q04DX004 (ip), vehicle: saline).

Consider `O=C1N(CCN2CCC3(CC2)OCCO3)CCN1c1cc(Cl)cc(Cl)c1`, for which the T/C was 104 % of control (dose: 25.0 mg/kg/injection, schedule: Q04DX004 (ip), vehicle: water) and 102 % of control (dose: 50.0 mg/kg/injection, schedule: Q04DX004 (ip), vehicle: water).

As to `CN1C(=O)C(=O)N(Cc2ccco2)C1=O`, the T/C is 106 % of control (dose: 31.25 mg/kg/injection, schedule: Q04DX004 (ip), vehicle: Klucel (hydroxypropylcellulose) (HPC)); 106 % of control (dose: 62.5 mg/kg/injection, schedule: Q04DX004 (ip), vehicle: Klucel (hydroxypropylcellulose) (HPC)); 99 % of control (dose: 125.0 mg/kg/injection, schedule: Q04DX004 (ip), vehicle: Klucel (hydroxypropylcellulose) (HPC)); 97 % of control (dose: 250.0 mg/kg/injection, schedule: Q04DX004 (ip), vehicle: Klucel (hydroxypropylcellulose) (HPC)); 100 % of control (dose: 500.0 mg/kg/injection, schedule: Q04DX004 (ip), vehicle: Klucel (hydroxypropylcellulose) (HPC)).

As for `CC1CCC(NC(=O)N(CCCl)N=O)CC1` (centres undefined), the T/C is, setting by setting: (dose: 3.0 mg/kg/injection, schedule: Q01DX004 (ip), vehicle: Klucel (hydroxypropylcellulose) (HPC)) 108 % of control; (dose: 6.0 mg/kg/injection, schedule: Q01DX004 (ip), vehicle: Klucel (hydroxypropylcellulose) (HPC)) 104 % of control; (dose: 12.0 mg/kg/injection, schedule: Q01DX004 (ip), vehicle: Klucel (hydroxypropylcellulose) (HPC)) 108 % of control; (dose: 48.0 mg/kg/injection, schedule: Q04DX004 (ip), vehicle: Klucel (hydroxypropylcellulose) (HPC)) 254 % of control.

Consider `CC(=O)/C(=C\c1ccc(/C=C(\C(C)=O)C(=O)CCN(C)C)cc1)C(=O)CCN(C)C`, for which the T/C (dose: 400.0 mg/kg/injection, schedule: Q04DX004 (ip), vehicle: saline with Tween-80) was 92 % of control.

For `CCOC(=O)C(N)CSC(=O)NC` (centres undefined), the T/C is, setting by setting: (dose: 130.0 mg/kg/injection, schedule: Q04DX004 (ip), vehicle: saline) 105 % of control; (dose: 216.0 mg/kg/injection, schedule: Q04DX004 (ip), vehicle: saline) 111 % of control and 119 % of control; (dose: 360.0 mg/kg/injection, schedule: Q04DX004 (ip), vehicle: saline) 115 % of control and 122 % of control.

On to `CC(/C=C/C1OC(=O)C=CC1C)=C\C(C)C/C=C/C(C)=C/C(CO)C(=O)C(C)C(O)C(C)C/C(C)=C/C(=O)O` (centres undefined), for which the T/C by setting is: (dose: 13.63 micrograms/kg/injection, schedule: Q04DX004 (ip), vehicle: other) 100 % of control; (dose: 27.25 micrograms/kg/injection, schedule: Q04DX004 (ip), vehicle: other) 107 % of control; (dose: 54.5 micrograms/kg/injection, schedule: Q04DX004 (ip), vehicle: other) 109 % of control; (dose: 109.0 micrograms/kg/injection, schedule: Q04DX004 (ip), vehicle: other) 113 % of control; (dose: 500.0 micrograms/kg/injection, schedule: Q04DX004 (ip), vehicle: other) 171 % of control; (dose: 1000.0 micrograms/kg/injection, schedule: Q04DX004 (ip), vehicle: other) 202 % of control. In addition, under “dose: 2000.0 micrograms/kg/injection, schedule: Q04DX004 (ip), vehicle: other”, the T/C is 192 % of control.

For the compound `CC(=O)[O][Pb]([O]C(C)=O)([c]1ccccc1)[c]1ccccc1`, the T/C runs as follows: under setting [5], 100 % of control; under setting [6], 104 % of control; under setting [7], 99 % of control; under setting [8], 97 % of control; (dose: 800.0 mg/kg/injection, schedule: Q04DX004 (ip), vehicle: Klucel (hydroxypropylcellulose) (HPC)) 114 % of control.

Turning to `O=CC(NC(=O)N(CCCl)N=O)C(O)C(O)C(O)CO` (centres undefined), the T/C runs as follows: (dose: 1.25 mg/kg/injection, schedule: Q04DX005 (ip), vehicle: saline) 319 % of control; (dose: 2.5 mg/kg/injection, schedule: Q04DX005 (ip), vehicle: saline) 319 % of control; (dose: 5.0 mg/kg/injection, schedule: Q04DX005 (ip), vehicle: saline) 319 % of control; (dose: 10.0 mg/kg/injection, schedule: Q04DX005 (ip), vehicle: saline) 319 % of control.

With `CN(C)[C@@H]1C(=O)C(C(N)=O)=C(O)[C@@]2(O)C(=O)C3=C(O)c4c(O)ccc(Cl)c4[C@@](C)(O)[C@H]3C[C@@H]12`, the T/C was 86 % of control (dose: 25.0 mg/kg/injection, schedule: Q04DX004 (ip), vehicle: suspension in saline); 96 % of control under setting [9]; 91 % of control under setting [10].

As for `CCc1n[nH]c(CC)c1CCCCCCOc1ccc(OC)cc1Cl`, the T/C reads like this: (dose: 25.0 mg/kg/injection, schedule: Q04DX004 (ip), vehicle: saline with Tween-80) 106 % of control; under setting [11], 100 % of control; (dose: 50.0 mg/kg/injection, schedule: Q04DX004 (ip), vehicle: saline with Tween-80) 107 % of control; under setting [12], 91 % of control; (dose: 100.0 mg/kg/injection, schedule: Q04DX004 (ip), vehicle: saline with Tween-80) 97 % of control; (dose: 200.0 mg/kg/injection, schedule: Q04DX004 (ip), vehicle: saline with Tween-80) 91 % of control.

Take `COc1ccc(Nc2c3sc4cc(OC)ccc4nc-3c3ccccc3c2=O)cc1`: the T/C is, setting by setting: under setting [11], 105 % of control; under setting [12], 89 % of control; (dose: 150.0 mg/kg/injection, schedule: Q04DX004 (ip), vehicle: saline with Tween-80) 86 % of control.

For the compound `COc1cc(C2c3cc4c(cc3[C@@H](OC3OC5CO[C@@H](C)OC5C(O)C3O)[C@H]3COC(=O)C23)OCO4)cc(OC)c1OC` (some centres undefined), the T/C was 116 % of control (dose: 25.0 mg/kg/injection, schedule: Q04DX004 (ip), vehicle: saline); 118 % of control under setting [5]; 110 % of control under setting [3]; 103 % of control under setting [9]; 122 % of control under setting [4]; 99 % of control under setting [10]. Moreover, the T/C by setting is: under setting [7], 171 % of control; (dose: 200.0 mg/kg/injection, schedule: Q04DX004 (ip), vehicle: suspension in saline) 123 % of control; (dose: 300.0 mg/kg/injection, schedule: Q04DX004 (ip), vehicle: suspension in saline) 168 % of control; under setting [8], 233 % of control.

With `O=C1CN2CCN3CC(=O)NC(=O)[C@H]3[C@@H]2C(=O)N1`, the T/C (dose: 31.0 mg/kg/injection, schedule: Q04DX004 (ip), vehicle: saline with Tween-80) is 93 % of control; the T/C (dose: 62.0 mg/kg/injection, schedule: Q04DX004 (ip), vehicle: saline with Tween-80) was 94 % of control; the T/C under setting [1] was 93 % of control; the T/C under setting [2] is 100 % of control; the T/C (dose: 500.0 mg/kg/injection, schedule: Q04DX004 (ip), vehicle: saline with Tween-80) was 98 % of control.

In the case of `N=C(N)c1ccc(N=Nc2c(O)ccc3cc(O)ccc23)cc1`, the T/C is 98 % of control and 103 % of control (dose: 12.5 mg/kg/injection, schedule: Q04DX004 (ip), vehicle: Klucel (hydroxypropylcellulose) (HPC)); 95 % of control and 99 % of control (dose: 25.0 mg/kg/injection, schedule: Q04DX004 (ip), vehicle: Klucel (hydroxypropylcellulose) (HPC)); 96 % of control and 103 % of control under setting [5]; 100 % of control and 103 % of control under setting [6]; 97 % of control and 98 % of control under setting [7].

As to `O=C1N[C@@H]([C@H]2CC[C@H](Cl)CN2)C(=O)N[C@H]1[C@H]1CC[C@H](Cl)CN1`, the T/C is, setting by setting: (dose: 0.5 mg/kg/injection, schedule: Q04DX005 (ip), vehicle: saline) 115 % of control; (dose: 2.0 mg/kg/injection, schedule: Q04DX005 (ip), vehicle: saline) 185 % of control; (dose: 4.0 mg/kg/injection, schedule: Q04DX005 (ip), vehicle: saline) 319 % of control; (dose: 8.0 mg/kg/injection, schedule: Q04DX005 (ip), vehicle: saline) 319 % of control.
